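Each compound was tested at five concentrations against cells in 96-well plates for 48 hours. Here, GI50 denotes the concentration required for 50% inhibition of growth. TGI denotes the concentration required for complete inhibition of growth.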
Key:
Experiment in all cases: NCI anticancer screen, dose series, 48 h
RXF 393 renal = system: RXF 393 renal
COLO 205 colon = system: COLO 205 colon
NCI-H23 lung = system: NCI-H23 lung
HOP-92 NSCLC = system: HOP-92 NSCLC
OVCAR-5 ovarian = system: OVCAR-5 ovarian
U251 CNS = system: U251 CNS
SNB-75 CNS = system: SNB-75 CNS
786-0 renal = system: 786-0 renal
HOP-62 NSCLC = system: HOP-62 NSCLC
OVCAR-3 ovarian = system: OVCAR-3 ovarian
LOX IMVI melanoma = system: LOX IMVI melanoma
MOLT-4 leukemia = system: MOLT-4 leukemia
NCI-H226 lung = system: NCI-H226 lung
MALME-3M melanoma = system: MALME-3M melanoma
NCI-H460 lung = system: NCI-H460 lung
SN12C renal = system: SN12C renal
MCF7 breast = system: MCF7 breast
EKVX NSCLC = system: EKVX NSCLC
M14 melanoma = system: M14 melanoma
HCT-15 colon = system: HCT-15 colon
HT29 colon = system: HT29 colon
SW-620 colon = system: SW-620 colon
CAKI-1 renal = system: CAKI-1 renal
SF-268 CNS = system: SF-268 CNS
MDA-MB-435 = system: MDA-MB-435
UO-31 renal = system: UO-31 renal
K-562 leukemia = system: K-562 leukemia
TK-10 renal = system: TK-10 renal
PC-3 prostate = system: PC-3 prostate
T-47D breast = system: T-47D breast
UACC-62 melanoma = system: UACC-62 melanoma
HS 578T breast = system: HS 578T breast
SK-OV-3 ovarian = system: SK-OV-3 ovarian
ACHN renal = system: ACHN renal
SK-MEL-5 melanoma = system: SK-MEL-5 melanoma
HL-60(TB) leukemia = system: HL-60(TB) leukemia
OVCAR-4 ovarian = system: OVCAR-4 ovarian
NCI-H522 lung = system: NCI-H522 lung
SF-539 CNS = system: SF-539 CNS
A498 renal = system: A498 renal
A549 NSCLC = system: A549 NSCLC
SNB-19 CNS = system: SNB-19 CNS
BT-549 breast = system: BT-549 breast
HCC-2998 colon = system: HCC-2998 colon
UACC-257 melanoma = system: UACC-257 melanoma
SF-295 CNS = system: SF-295 CNS
CCRF-CEM leukemia = system: CCRF-CEM leukemia
OVCAR-8 ovarian = system: OVCAR-8 ovarian
HCT-116 colon = system: HCT-116 colon
SK-MEL-28 melanoma = system: SK-MEL-28 melanoma
IGROV1 ovarian = system: IGROV1 ovarian
KM12 colon = system: KM12 colon
MDA-MB-231 breast = system: MDA-MB-231 breast
RPMI-8226 leukemia = system: RPMI-8226 leukemia
NCI/ADR-RES ovarian = system: NCI/ADR-RES ovarian
SK-MEL-2 melanoma = system: SK-MEL-2 melanoma

## COc1ccc(OC)c(/C=C/C(=O)N/N=C/c2ccccc2)c1
RXF 393 renal
  GI50: 3.9 µM
  TGI: 26.6 µM
COLO 205 colon
  GI50: 4.8 µM
  TGI: 35.1 µM
NCI-H23 lung
  GI50: 5.4 µM
  TGI: 87 µM
HOP-92 NSCLC
  GI50: 1.56 µM
  TGI: 13.3 µM
OVCAR-5 ovarian
  GI50: 18 µM
  TGI: > 100 µM
U251 CNS
  GI50: 3.68 µM
  TGI: > 100 µM
SNB-75 CNS
  GI50: 4.39 µM
  TGI: 37.3 µM
786-0 renal
  GI50: 7 µM
  TGI: 72.5 µM
HOP-62 NSCLC
  GI50: 4.95 µM
  TGI: > 100 µM
OVCAR-3 ovarian
  GI50: 3.15 µM
  TGI: > 100 µM
LOX IMVI melanoma
  GI50: 4.12 µM
  TGI: > 100 µM
MOLT-4 leukemia
  GI50: 4.45 µM
  TGI: > 100 µM
NCI-H226 lung
  GI50: 30.8 µM
  TGI: > 100 µM
MALME-3M melanoma
  GI50: 2.12 µM
  TGI: > 100 µM
NCI-H460 lung
  GI50: 2.07 µM
  TGI: 5.62 µM
SN12C renal
  GI50: 4.17 µM
  TGI: 39.9 µM
MCF7 breast
  GI50: 3.79 µM
  TGI: > 100 µM
EKVX NSCLC
  GI50: 1.59 µM
  TGI: 59.5 µM
M14 melanoma
  GI50: 2.16 µM
  TGI: 6.77 µM
HCT-15 colon
  GI50: 3.62 µM
  TGI: > 100 µM
HT29 colon
  GI50: 2.1 µM
  TGI: > 100 µM
SW-620 colon
  GI50: 1.5 µM
  TGI: 6.23 µM
CAKI-1 renal
  GI50: 0.443 µM
  TGI: 6.66 µM
SF-268 CNS
  GI50: 7.56 µM
  TGI: > 100 µM
MDA-MB-435
  GI50: 0.283 µM
  TGI: 1.98 µM
UO-31 renal
  GI50: 5.9 µM
  TGI: 85.5 µM
K-562 leukemia
  GI50: 0.488 µM
  TGI: > 100 µM
TK-10 renal
  GI50: 16.6 µM
  TGI: > 100 µM
PC-3 prostate
  GI50: 5.86 µM
  TGI: 52.1 µM
T-47D breast
  GI50: 4.86 µM
  TGI: > 100 µM
UACC-62 melanoma
  GI50: 3.55 µM
  TGI: 75.8 µM
HS 578T breast
  GI50: 9.07 µM
  TGI: > 100 µM
SK-OV-3 ovarian
  GI50: 12 µM
  TGI: > 100 µM
ACHN renal
  GI50: 9.66 µM
  TGI: > 100 µM
SK-MEL-5 melanoma
  GI50: 2.95 µM
  TGI: 14.6 µM
HL-60(TB) leukemia
  GI50: 2.03 µM
  TGI: 13.7 µM
OVCAR-4 ovarian
  GI50: 14.3 µM
  TGI: > 100 µM
NCI-H522 lung
  GI50: 1.57 µM
  TGI: 41.7 µM
SF-539 CNS
  GI50: 4.42 µM
  TGI: 25.1 µM
A498 renal
  GI50: 12 µM
  TGI: > 100 µM
A549 NSCLC
  GI50: 4.29 µM
  TGI: > 100 µM
SNB-19 CNS
  GI50: 4.12 µM
  TGI: > 100 µM
BT-549 breast
  GI50: 4.05 µM
  TGI: 90.4 µM
HCC-2998 colon
  GI50: 2.35 µM
  TGI: 21 µM
UACC-257 melanoma
  GI50: 5.76 µM
  TGI: 33.6 µM
SF-295 CNS
  GI50: 1 µM
  TGI: 11.1 µM
CCRF-CEM leukemia
  GI50: 3.97 µM
  TGI: > 100 µM
OVCAR-8 ovarian
  GI50: 5.44 µM
  TGI: 94.6 µM
HCT-116 colon
  GI50: 2.64 µM
  TGI: 10.2 µM
SK-MEL-28 melanoma
  GI50: 8.89 µM
  TGI: > 100 µM
IGROV1 ovarian
  GI50: 1.51 µM
  TGI: > 100 µM
KM12 colon
  GI50: 0.834 µM
  TGI: 3.75 µM
MDA-MB-231 breast
  GI50: 7.24 µM
  TGI: > 100 µM
RPMI-8226 leukemia
  GI50: 2.99 µM
  TGI: 9.96 µM
NCI/ADR-RES ovarian
  GI50: 1.46 µM
  TGI: 4.29 µM
SK-MEL-2 melanoma
  GI50: 2.98 µM
  TGI: 9.32 µM

From PubChem BioAssay (NCI)
